Test system: 282377-053-R-J1-PDC complex spheroid viability
Assay: Anticancer human tumor 282377-053-R-J1-PDC patient-derived colon adenocarcinoma cell line growth inhibition [POLQ]
Conditions: for IC50: curve of first compound; for viability, T/C: stronger effect = lower value
Procedure: Multicellular complex tumor spheroid response to Polymerase (POL) inhibitors (novobiocin, ART-558, RP6685) in combination with a variety of drugs and investigational agents in selected tumor cell lines
The POL inhibitors (novobiocin, ART-558, and RP6685) were evaluated both individually and in combination with standard of care and investigational anticancer small molecules within a complex spheroid model of solid tumors. . Complex spheroids include a stromal component modeled by human endothelial cells (HUVEC) and fibroblasts modeled by human mesenchymal stem cells (MSCs). The concentration ranges selected for each drug and investigational agent were based upon clinically achievable concentrations if the clinical Cmax of the agent was known.
Compounds. The drugs and investigational agents: novobiocin (NSC847541), ART-558 (NSC835418), RP-6685 (NSC848927), peposertib (NSC802822), ceralasertib (NSC780249), elimusertib (NSC800525), camonsertib (NSC841442), AZD-1390 (NSC803789), olaparib (NSC753686), talazoparib (NSC767125), rucaparib (NSC756644), sotorasib (NSC818433), MRTX-1133 (NSC836407), SN-38 (NSC673596), topotecan (NSC609699), epotoside (NSC141540), doxorubicin (NSC123127), gemcitabine (NSC613327), 5-fluorouracil (NSC19893), paclitaxel (NSC125973), vemurafenib (NSC761431), MSA-2 (NSC828583), SN-011 (NSC837082), adavosertib (NSC754352), prexasertib (NSC758257), carboplatin (NSC241240) and oxaliplatin (NSC266046), were obtained from the National Cancer Institute (NCI) Developmental Therapeutics Program Chemical Repository (21). The FDA-approved anticancer drug set is available from the Developmental Therapeutics Program at https://dtp.cancer.gov/organization/dscb/obtaining/. […] The stock solutions were prepared in dimethyl sulfoxide (DMSO, Sigma-Aldrich, St. Louis, MO, cat. D2650), except for the platinum compounds which were prepared in saline (Quality Biological, Gaithersburg, MD, cat. 114-055-101), at 800-fold the tested concentration and stored at -70 degrees C prior to their use. All drugs and investigational agents were tested over a range starting from a high concentration at or near the clinical Cmax and decreasing in half-log increments. If the clinical Cmax for an agent had not been determined, the highest concentration tested was 10 microM, except for SN-38, which was tested at a high concentration of 1 microM.
Cell Culture. All cells were maintained in an incubator at 37 degrees C and 5% CO2 with 95% humidity. The PDC lines were cultured according to standard operating procedures established by the NCI PDMR (https://pdmr.cancer.gov). Table 3 of the manuscript, lists the cell lines along with the number of the three cell types plated to form the mct-spheroids and media for tumor cell growth. After thawing, all PDC lines, except 997537-175-T-J1-PDC and 415267-285-R-J2-PDC, were cultured in Matrigel-coated flasks prepared with a working solution of 1X Ham's F-12 nutrient mix, without supplementation (Thermo Fisher Scientific, cat. 11765054), 100 U/mL penicillin-streptomycin (Thermo Fisher Scientific, cat. 15140122), and 2.5% Matrigel (Corning Inc., Corning, NY, cat. 354248) for the first three passages. The two PDC lines 997537-175-T-J1-PDC and 415267-285-R-J2-PDC were cultured on uncoated flasks. The 857933-349-R-J2-PDC line was cultured in 6C/Colon 1B media containing advanced DMEM/F-12 (Thermo Fisher Scientific, cat. 12634028), 10 mM HEPES (Thermo Fisher Scientific, cat. 15630080), 1X GlutaMAX supplement (Thermo Fisher Scientific, cat. 35050061), 0.1 mg/mL primocin (InvivoGen, San Diego, CA, cat. ant-pm-2), 10% defined fetal bovine serum, heat inactivated (HyClone Laboratories Inc., Logan, UT, cat. SH30070.03HI), 50% L-WRN conditioned media (ATCC, cat. CRL-3276), 1.25 mM N-Acetyl-L-cysteine (Sigma-Aldrich, cat. A9165), 10 mM nicotinamide (Sigma-Aldrich, cat. N0636), 1X B-27 supplement (Thermo Fisher Scientific, cat. 17504044), 1X N-2 supplement (Thermo Fisher Scientific, cat. […]

[1] = second compound 0.0316 µM, first compound 0.0316 µM
[2] = second compound 0.0316 µM, first compound 0.1 µM
[3] = second compound 0.0316 µM, first compound 0.316 µM
[4] = second compound 0.0316 µM, first compound 1 µM
[5] = second compound 0.1 µM, first compound 0.0316 µM
[6] = second compound 0.1 µM, first compound 0.1 µM
[7] = second compound 0.1 µM, first compound 0.316 µM
[8] = second compound 0.1 µM, first compound 1 µM
[9] = second compound 0.316 µM, first compound 0.0316 µM
[10] = second compound 0.316 µM, first compound 0.1 µM
[11] = second compound 0.316 µM, first compound 0.316 µM
[12] = second compound 0.316 µM, first compound 1 µM
[13] = second compound 1 µM, first compound 0.0316 µM
[14] = second compound 1 µM, first compound 0.1 µM
[15] = second compound 1 µM, first compound 0.316 µM
[16] = second compound 1 µM, first compound 1 µM
[17] = second compound 3.16 µM, first compound 0.0316 µM
[18] = second compound 3.16 µM, first compound 0.1 µM
[19] = second compound 3.16 µM, first compound 0.316 µM
[20] = second compound 3.16 µM, first compound 1 µM
[21] = second compound 10 µM, first compound 0.0316 µM
[22] = second compound 10 µM, first compound 0.1 µM
[23] = second compound 10 µM, first compound 0.316 µM
[24] = second compound 10 µM, first compound 1 µM
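Further: spheroids exposed to compounds for seven days.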
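Wherever viability, T/C is given: 100% = DMSO vehicle control viability.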

## COc1cc(C2c3cc4c(cc3C(OC3OC5COC(C)OC5C(O)C3O)C3COC(=O)C23)OCO4)cc(OC)c1O (stereo unspecified) + Cc1cccc(N(C)C(=O)C2C(O)CCN2c2nc(C)cc(C(F)(F)F)c2C#N)c1
Second compound 0.0316 µM
  IC50: > 10000 nM
Second compound 0.1 µM
  IC50: > 10000 nM
Second compound 0.316 µM
  IC50: > 10000 nM
Second compound 1 µM
  IC50: > 10000 nM
Second compound 3.16 µM
  IC50: > 10000 nM
Second compound 10 µM
  IC50: 7510 nM
[1]
  viability, T/C: 139%
[2]
  viability, T/C: 104%
[3]
  viability, T/C: 128%
[4]
  viability, T/C: 109%
Second compound 0.0316 µM, first compound 3.16 µM
  viability, T/C: 84.8%
Second compound 0.0316 µM, first compound 10 µM
  viability, T/C: 61.4%
[5]
  viability, T/C: 112%
[6]
  viability, T/C: 105%
[7]
  viability, T/C: 123%
[8]
  viability, T/C: 88.7%
Second compound 0.1 µM, first compound 3.16 µM
  viability, T/C: 89.1%
Second compound 0.1 µM, first compound 10 µM
  viability, T/C: 59.1%
[9]
  viability, T/C: 108%
[10]
  viability, T/C: 98.2%
[11]
  viability, T/C: 119%
[12]
  viability, T/C: 116%
Second compound 0.316 µM, first compound 3.16 µM
  viability, T/C: 91%
Second compound 0.316 µM, first compound 10 µM
  viability, T/C: 64.2%
[13]
  viability, T/C: 107%
[14]
  viability, T/C: 99%
[15]
  viability, T/C: 123%
[16]
  viability, T/C: 98.1%
Second compound 1 µM, first compound 3.16 µM
  viability, T/C: 78.7%
Second compound 1 µM, first compound 10 µM
  viability, T/C: 56.9%
[17]
  viability, T/C: 103%
[18]
  viability, T/C: 102%
[19]
  viability, T/C: 96.2%
[20]
  viability, T/C: 90.1%
Second compound 3.16 µM, first compound 3.16 µM
  viability, T/C: 86.2%
Second compound 3.16 µM, first compound 10 µM
  viability, T/C: 53.9%
[21]
  viability, T/C: 103%
[22]
  viability, T/C: 100%
[23]
  viability, T/C: 96.5%
[24]
  viability, T/C: 78.2%
Second compound 10 µM, first compound 3.16 µM
  viability, T/C: 62.1%
Second compound 10 µM, first compound 10 µM
  viability, T/C: 46%

## COc1cccc(OCCCN)c1-c1cc(Nc2cnc(C#N)cn2)n[nH]1 + Cc1cccc(N(C)C(=O)C2C(O)CCN2c2nc(C)cc(C(F)(F)F)c2C#N)c1
Second compound 0.0316 µM
  IC50: 632 nM
Second compound 0.1 µM
  IC50: 559 nM
Second compound 0.316 µM
  IC50: > 1000 nM
Second compound 1 µM
  IC50: 545 nM
Second compound 3.16 µM
  IC50: 300 nM
Second compound 10 µM
  IC50: 395 nM
Second compound 0.0316 µM, first compound 0.00316 µM
  viability, T/C: 102%
Second compound 0.0316 µM, first compound 0.01 µM
  viability, T/C: 98.5%
[1]
  viability, T/C: 85.8%
[2]
  viability, T/C: 74.5%
[3]
  viability, T/C: 60.9%
[4]
  viability, T/C: 43.1%
Second compound 0.1 µM, first compound 0.00316 µM
  viability, T/C: 100%
Second compound 0.1 µM, first compound 0.01 µM
  viability, T/C: 95.4%
[5]
  viability, T/C: 97%
[6]
  viability, T/C: 73.4%
[7]
  viability, T/C: 60%
[8]
  viability, T/C: 41.5%
Second compound 0.316 µM, first compound 0.00316 µM
  viability, T/C: 91%
Second compound 0.316 µM, first compound 0.01 µM
  viability, T/C: 88.5%
[9]
  viability, T/C: 86.1%
[10]
  viability, T/C: 64.2%
[11]
  viability, T/C: 55.7%
[12]
  viability, T/C: 49.2%
Second compound 1 µM, first compound 0.00316 µM
  viability, T/C: 109%
Second compound 1 µM, first compound 0.01 µM
  viability, T/C: 90.2%
[13]
  viability, T/C: 72.9%
[14]
  viability, T/C: 59%
[15]
  viability, T/C: 57.3%
[16]
  viability, T/C: 45.1%
Second compound 3.16 µM, first compound 0.00316 µM
  viability, T/C: 95.9%
Second compound 3.16 µM, first compound 0.01 µM
  viability, T/C: 102%
[17]
  viability, T/C: 84.7%
[18]
  viability, T/C: 65.7%
[19]
  viability, T/C: 51.8%
[20]
  viability, T/C: 39.4%
Second compound 10 µM, first compound 0.00316 µM
  viability, T/C: 85.3%
Second compound 10 µM, first compound 0.01 µM
  viability, T/C: 90.1%
[21]
  viability, T/C: 72.3%
[22]
  viability, T/C: 61.8%
[23]
  viability, T/C: 55.8%
[24]
  viability, T/C: 39.6%

## CC(=O)O[C@H]1C(=O)[C@@]2(C)[C@H]([C@H](OC(=O)c3ccccc3)[C@]3(O)C[C@H](OC(=O)[C@H](O)[C@@H](NC(=O)c4ccccc4)c4ccccc4)C(C)=C1C3(C)C)[C@]1(OC(C)=O)CO[C@@H]1C[C@@H]2O + Nc1ccc(C#CCN(C(=O)Cc2ncc(C(F)(F)F)cc2C(F)(F)F)c2ccc(F)cc2)nn1
Second compound 0.0316 µM
  IC50: > 3000 nM
Second compound 0.1 µM
  IC50: > 3000 nM
Second compound 0.316 µM
  IC50: 3000 nM
Second compound 1 µM
  IC50: > 3000 nM
Second compound 3.16 µM
  IC50: 91.8 nM
Second compound 10 µM
  IC50: > 3000 nM
Second compound 0.0316 µM, first compound 0.00949 µM
  viability, T/C: 102%
Second compound 0.0316 µM, first compound 0.03 µM
  viability, T/C: 50.7%
Second compound 0.0316 µM, first compound 0.0949 µM
  viability, T/C: 47.4%
Second compound 0.0316 µM, first compound 0.3 µM
  viability, T/C: 46.9%
Second compound 0.0316 µM, first compound 0.949 µM
  viability, T/C: 51.2%
Second compound 0.0316 µM, first compound 3 µM
  viability, T/C: 65.8%
Second compound 0.1 µM, first compound 0.00949 µM
  viability, T/C: 102%
Second compound 0.1 µM, first compound 0.03 µM
  viability, T/C: 65.9%
Second compound 0.1 µM, first compound 0.0949 µM
  viability, T/C: 50.4%
Second compound 0.1 µM, first compound 0.3 µM
  viability, T/C: 46.5%
Second compound 0.1 µM, first compound 0.949 µM
  viability, T/C: 53.8%
Second compound 0.1 µM, first compound 3 µM
  viability, T/C: 64.9%
Second compound 0.316 µM, first compound 0.00949 µM
  viability, T/C: 100%
Second compound 0.316 µM, first compound 0.03 µM
  viability, T/C: 47.7%
Second compound 0.316 µM, first compound 0.0949 µM
  viability, T/C: 49.7%
Second compound 0.316 µM, first compound 0.3 µM
  viability, T/C: 50.1%
Second compound 0.316 µM, first compound 0.949 µM
  viability, T/C: 47.2%
Second compound 0.316 µM, first compound 3 µM
  viability, T/C: 65.2%
Second compound 1 µM, first compound 0.00949 µM
  viability, T/C: 99.1%
Second compound 1 µM, first compound 0.03 µM
  viability, T/C: 57.4%
Second compound 1 µM, first compound 0.0949 µM
  viability, T/C: 44.2%
Second compound 1 µM, first compound 0.3 µM
  viability, T/C: 53.3%
Second compound 1 µM, first compound 0.949 µM
  viability, T/C: 57.3%
Second compound 1 µM, first compound 3 µM
  viability, T/C: 57.7%
Second compound 3.16 µM, first compound 0.00949 µM
  viability, T/C: 87.8%
Second compound 3.16 µM, first compound 0.03 µM
  viability, T/C: 52.8%
Second compound 3.16 µM, first compound 0.0949 µM
  viability, T/C: 42.3%
Second compound 3.16 µM, first compound 0.3 µM
  viability, T/C: 49.7%
Second compound 3.16 µM, first compound 0.949 µM
  viability, T/C: 45.8%
Second compound 3.16 µM, first compound 3 µM
  viability, T/C: 60.8%
Second compound 10 µM, first compound 0.00949 µM
  viability, T/C: 106%
Second compound 10 µM, first compound 0.03 µM
  viability, T/C: 58.8%
Second compound 10 µM, first compound 0.0949 µM
  viability, T/C: 49.7%
Second compound 10 µM, first compound 0.3 µM
  viability, T/C: 50.9%
Second compound 10 µM, first compound 0.949 µM
  viability, T/C: 60.9%
Second compound 10 µM, first compound 3 µM
  viability, T/C: 77.6%

Reference: PubChem BioAssay AID1963852 (Molecular Pharmacology Branch, DTP, NCI, 2024)
